One series concerns the target T1, active GPIIb/IIIa (Homo sapiens, UniProt P05106+P08514).
T1 construct: Platelet rich plasma (PRP) containing 3×10^8 platelets/ml was prepared from human blood; endogenous in cells
Kind of series: Test 1: inhibitory activity of adenosine diphosphate (ADP)-induced platelet aggregation in platelet rich plasma. The format is cell-based. The conditions noted are these: for R/A ratio: IC50 (R) of Test 2 / IC50 (A) of Test 1, selective binding ability toward the active GPIIb/IIIa; for IC50: human PRP 3×10^8 platelets/ml, 37° C., read-out: A Inhibition of platelet aggregation IC50. The method, then:
Test 1: Measurement of Inhibitory Activity of Adenosine Diphosphate (ADP)-induced Platelet Aggregation
Platelet rich plasma (PRP) containing 3×10^8 platelets/ml was prepared from human blood. To 225 μl of PRP, 25 μl of a solution of the test compound was added and stirred at 37° C. for 2 min. To the solution, 5 μl of ADP (final concentration: 2.5 μM) was added as an aggregation inducing agent. Aggregation was measured with aggregometer (NBS HEMA-TRACER 801). The procedure was as follows. Light transmittance of PRP was calibrated to 100%. PRP was incubated in the aggregometer at 37° C. for 2 min. ADP was added […], and the change in light transmittance was monitored by PL500 recorder (Yokogawa, Japan). Percent inhibition of aggregation by the test compound was calculated by comparison with the aggregation in the absence of the test compound. The activity of an […] (test compound) is represented as a value of IC50, i.e., a dose required for the […] inhibition of the platelet aggregation.

For a further series, the target named is T2, resting GPIIb/IIIa (Homo sapiens, UniProt P05106+P08514).
T2 construct: Platelet rich plasma (PRP) was prepared by centrifugation of whole blood; endogenous in cells; host or cells: washed platelets from venous blood, kept resting with 1 μM PGE1
T2 sequence (P08514 32-887 limits assumed): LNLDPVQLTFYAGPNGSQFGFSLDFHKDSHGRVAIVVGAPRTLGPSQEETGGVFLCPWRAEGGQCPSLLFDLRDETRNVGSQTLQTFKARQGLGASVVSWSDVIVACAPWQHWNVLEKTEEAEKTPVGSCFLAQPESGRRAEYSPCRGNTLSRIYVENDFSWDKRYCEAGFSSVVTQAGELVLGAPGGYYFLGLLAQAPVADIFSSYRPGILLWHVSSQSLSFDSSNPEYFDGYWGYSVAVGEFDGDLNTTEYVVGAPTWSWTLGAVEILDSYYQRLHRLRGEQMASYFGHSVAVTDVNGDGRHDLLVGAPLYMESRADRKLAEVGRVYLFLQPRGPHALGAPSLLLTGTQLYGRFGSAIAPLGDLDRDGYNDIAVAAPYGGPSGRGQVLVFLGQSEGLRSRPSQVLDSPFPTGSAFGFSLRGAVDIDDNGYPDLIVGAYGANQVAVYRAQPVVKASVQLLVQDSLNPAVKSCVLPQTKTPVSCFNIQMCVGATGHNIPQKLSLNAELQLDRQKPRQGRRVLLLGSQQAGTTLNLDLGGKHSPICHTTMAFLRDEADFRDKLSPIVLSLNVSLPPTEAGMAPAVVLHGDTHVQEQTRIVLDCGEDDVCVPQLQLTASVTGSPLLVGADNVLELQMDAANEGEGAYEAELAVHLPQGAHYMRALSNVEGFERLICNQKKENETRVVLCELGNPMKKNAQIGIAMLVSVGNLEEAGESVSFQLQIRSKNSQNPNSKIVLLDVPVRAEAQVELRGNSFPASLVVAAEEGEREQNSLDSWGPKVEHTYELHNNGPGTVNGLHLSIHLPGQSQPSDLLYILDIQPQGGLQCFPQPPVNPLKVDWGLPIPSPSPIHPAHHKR
T2 sequence (P08514 891-1039 partner limits assumed): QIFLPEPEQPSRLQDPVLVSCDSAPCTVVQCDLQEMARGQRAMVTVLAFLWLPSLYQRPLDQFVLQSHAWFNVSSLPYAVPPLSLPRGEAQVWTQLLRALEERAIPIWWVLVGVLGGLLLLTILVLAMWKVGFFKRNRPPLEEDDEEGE
T2 sequence (P05106 27-788): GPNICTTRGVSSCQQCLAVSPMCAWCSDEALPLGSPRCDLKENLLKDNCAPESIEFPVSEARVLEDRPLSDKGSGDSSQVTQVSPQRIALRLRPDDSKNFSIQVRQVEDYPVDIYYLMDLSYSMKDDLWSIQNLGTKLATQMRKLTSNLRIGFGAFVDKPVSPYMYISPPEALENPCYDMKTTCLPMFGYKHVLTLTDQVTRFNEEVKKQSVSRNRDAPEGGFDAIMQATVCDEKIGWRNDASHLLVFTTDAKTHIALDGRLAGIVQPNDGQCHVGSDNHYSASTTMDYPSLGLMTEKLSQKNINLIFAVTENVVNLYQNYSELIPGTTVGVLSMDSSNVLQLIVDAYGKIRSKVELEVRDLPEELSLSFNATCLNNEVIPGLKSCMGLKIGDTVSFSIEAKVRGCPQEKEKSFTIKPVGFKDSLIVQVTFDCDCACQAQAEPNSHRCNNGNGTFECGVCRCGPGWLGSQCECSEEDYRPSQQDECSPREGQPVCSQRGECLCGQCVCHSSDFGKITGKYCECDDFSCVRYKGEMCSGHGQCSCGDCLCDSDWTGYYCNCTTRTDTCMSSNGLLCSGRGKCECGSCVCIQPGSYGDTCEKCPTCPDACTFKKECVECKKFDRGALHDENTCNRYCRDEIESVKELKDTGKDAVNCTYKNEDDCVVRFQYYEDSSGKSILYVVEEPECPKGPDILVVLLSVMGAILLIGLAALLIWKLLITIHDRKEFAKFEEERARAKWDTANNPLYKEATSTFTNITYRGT
Description: Test 2: suppression activity of fibrinogen adhesion of prostaglandin E1 (PGE1)-treated platelet. It is filed as cell-based. To be noted: for IC50: washed PGE1 (1 μM)-treated platelets, plates coated with human fibrinogen 1 μg/well, 37° C. 30 min, read-out: R Suppression of fibrinogen adhesion IC50. As for the experimental part:
Test 2: Measurement of Suppression Activity of Fibrinogen Adhesion of Prostaglandin E1 (PGE 1)-treated Platelet
Venous blood was collected onto sodium citrate. Platelet rich plasma (PRP) was prepared by centrifugation of whole blood. Platelets were washed with modified HEPES-Tyrode's buffer (129 mM NaCl, 2.8 mM KCl, 0.8 mM KH2PO4, 8.9 mM NaHCO3, 0.8 mM MgCl2, 10 mM HEPES, 5.5 mM Glucose, 0.1% BSA,.pH 7.4) containing 1μM PGE1. After washing, platelets were suspended in modified HEPES-Tyrode's buffer containing 1.0 mM CaCl2 and 1 μM PGE1 and the number of platelet was adjusted.
Adhesion assay was carried out as follows. 96-well microtiter plates were coated with 1 μg/well of human fibrinogen. The plates were then blocked with 1% BSA. After washing the plates with the buffer, the washed platelets were added to each well in the presence of the test compound or buffer and incubated at 37° C. for 30 min. The plates were then washed three times with buffer. The number of adhered cells was determined by measuring the acid phosphatase activity of cells using a microplate reader at 410 nm. Percent inhibition of adhesion in the sample treated with the test compound was calculated by comparison with the adhesion in absence of the test compound. The activity of the test compound was represented by a value of IC50, i.e. a dose required for the […] inhibition of the platelet adhesion.

Another series has as its system monkey thrombus model. Description: Accumulation of radioactivity at thrombus, blood and muscle in monkey thrombus model (PET, gamma counter). The format is in vivo, monkey (Macaca fasciculans). To be noted: 90 min after the administration. The text has this:
Kinetics of the labeled compounds in the body of monkey (Macaca fasciculans) was studied by using the contrast mediums labeled with [^11C] and [^18F] prepared in Production Examples 21 and 22, respectively.
According to the canine saphenous vein (which is formed with a confluence of dorsal digital veins of hallux and arcuate veins of foot, and ascends in front of a medial malleolus and behind of a medial condyle of femur, crosses a saphenous opening of patellar retinaculum and pour into a femoral vein over a femoral triangle) thrombosis model (Knight L. C. et al., Thromb Haemost., 1998, 80, p.845-851 and Lister-James L. et al., J. Nucl Med. 1996, 37, p.775-781), a platinum embolization coil (Boston Scientific Japan) was inserted and placed in the right femoral vein of the monkey while anesthetized and wound was sutured.
Three hours after the insertion of the coil, the contrast mediums prepared in Production Examples 21 and 22, respectively, were administered intravenously (740 MBq/2 ml-saline). Imaging was performed for 90 min with a high-resolution positron emission tomography (PET) scanner (SHR-7700, Hamamatsu Photonics K.K., Japan). After PET measurement, the coil was removed, and the right femoral vein was collected to obtain a thrombus sample. Thigh muscle was collected, and saphenous artery was punctured to collect an arterial blood sample. The thrombus, thigh muscle and arterial blood samples were weighed and their radioactivity was measured with gamma counter (1480 WIZARD, Wallac Oy, Finland).
Data was calculated as percent of injected dose ([…]).

The mark [1] stands for this setting: listed as Production Example 21.

Where a name gives a salt, the structure may show the parent alone.

T1 sequence (P08514 32-887 limits assumed): as the sequence (P08514 32-887 limits assumed) above
T1 sequence (P08514 891-1039 partner limits assumed): as the sequence (P08514 891-1039 partner limits assumed) above
T1 sequence (P05106 27-788): as the sequence (P05106 27-788) above

Turning to `CC(C)CC(=O)Nc1cccc(C(=O)N[C@@H](CNC(=O)[C@H]2CCCN(C(=O)CCC3CCNCC3)C2)C(=O)O)c1` [Ex. 20], the R/A ratio at active GPIIb/IIIa turned out to be 8.0. In addition, the IC50 is 30 nM on active GPIIb/IIIa (ADP final concentration 2.5 μM) and 239 nM on resting GPIIb/IIIa.
Turning to `CC(C)CCC(=O)Nc1cccc(C(=O)N[C@@H](CNC(=O)[C@H]2CCCN(C(=O)CCC3CCNCC3)C2)C(=O)O)c1` [Ex. 19], the R/A ratio at active GPIIb/IIIa is 17. For the same compound, the half-maximal inhibitory concentration (IC50) is 9.1 nM on active GPIIb/IIIa (ADP final concentration 2.5 μM) and 151 nM on resting GPIIb/IIIa.
The corresponding values for `CC(=O)N[C@@H](CNC(=O)[C@H]1CCCN(C(=O)CCC2CCNCC2)C1)C(=O)O` [Ex. 12] are 6.5, 791 nM and 5160 nM.
`CC(C)CCCOc1ccc(C(=O)N[C@@H](CNC(=O)[C@H]2CCCN(C(=O)CCC3CCNCC3)C2)C(=O)O)cc1` [Ex. 18]: the R/A ratio at active GPIIb/IIIa was 7.9. The results for the IC50 on active GPIIb/IIIa (ADP final concentration 2.5 μM) and at resting GPIIb/IIIa were 6.1 nM and 48 nM, respectively.
As to `CC(=O)OCC(=O)N[C@H](CNC(=O)[C@@H]1CCCN(C(=O)CCC2CCNCC2)C1)C(=O)O` [Ex. 9], the R/A ratio on active GPIIb/IIIa was 13. Further, the IC50 at active GPIIb/IIIa (ADP final concentration 2.5 μM) is 55 nM; at resting GPIIb/IIIa, 727 nM.
For `CC(NCOc1ccc(C(=N)N)cc1)C(=O)N[C@@H](CC(=O)O)C(=O)N[C@@H](C(=O)N1CCS(=O)(=O)CC1)C(C)C` (stereo partly drawn) [Ex. 3] the same measures were 18, 73 nM and 1350 nM.
For `COC(=O)COc1ccc(C(=O)N[C@H](CNC(=O)[C@@H]2CCCN(C(=O)CCC3CCNCC3)C2)C(=O)O)cc1` [Ex. 17] the same measures were 16, 29.9 nM and 486 nM.
For `COc1ccc(CCC(=O)N[C@H](CNC(=O)[C@@H]2CCCN(C(=O)CCC3CCNCC3)C2)C(=O)O)cc1` [Ex. 7] the same measures were 15, 35 nM and 533 nM.
Take `CN(CC(=O)c1ccc(OCC(=O)O)c(OCC(=O)O)c1)C(=O)/C=C/C1CCNCC1` [Ex. 1, 2,2′-{[4-([methyl[(2E)-3-(4-piperidinyl)-2-propenoyl]amino}acetyl)-1,2-phenylene]bis(oxy)]diacetic acid hydrochloride]: at active GPIIb/IIIa, the R/A ratio came out at 59. For the same compound, the results for the IC50 on active GPIIb/IIIa (ADP final concentration 2.5 μM) and at resting GPIIb/IIIa were 135 nM and 7900 nM, respectively.
For `COc1cc(C(=O)CN(C)C(=O)/C=C/C2CCNCC2)ccc1OCC(=O)O` [Ex. 14] the same measures were 14, 291 nM and 4050 nM.
As for `[11CH3]N(CC(=O)c1ccc(OCC(=O)O)c(OCC(=O)O)c1)C(=O)/C=C/C1CCNCC1` [Production Ex. 21, 2,2′-[[4-({[^11C]methyl[(2E)-3-(4-piperidinyl)-2-propenoyl]amino}acetyl)-1,2-phenylene]bis(oxy)]diacetic acid trifluoroacetate], in the series on monkey thrombus model, the Thrombus/Blood ratio was 24.2 ± 17.9 and the Thrombus/Muscle ratio worked out at 94.8 ± 65.0. For the same compound, in the series on monkey thrombus model (setting [1]), the Thrombus/Blood ratio entry is reported as “approximately 24” and the Thrombus/Muscle ratio result is on record as “approximately 95”. Besides, in the series with monkey thrombus model (intravenous 740 MBq, arterial blood), the “Blood accumulation of radioactivity” value was found to be 0.084 ± 0.012 % ID/g/kg. In addition, the “Muscle accumulation of radioactivity” value with monkey thrombus model (intravenous 740 MBq, thigh muscle) is reported as 0.021 ± 0.005 % ID/g/kg. For the same compound, in the series on monkey thrombus model (intravenous 740 MBq, thrombus), the “Thrombus accumulation of radioactivity” value amounted to 1.902 ± 1.132 % ID/g/kg.
`CCCCCCC(=O)N[C@H](CNC(=O)[C@@H]1CCCN(C(=O)CCC2CCNCC2)C1)C(=O)O` [Ex. 16]: the R/A ratio on active GPIIb/IIIa is listed as 6.1. Besides, the IC50 at active GPIIb/IIIa (ADP final concentration 2.5 μM) came to 32.4 nM; on resting GPIIb/IIIa, 198 nM.
The corresponding values for `CC(=O)N[C@@H](CNC(=O)[C@@H]1CCCN(C(=O)/C=C/C2CCNCC2)C1)C(=O)O` [Ex. 6] are 7.8, 56 nM and 434 nM.
With `CCC(=O)N[C@@H](CNC(=O)[C@@H]1CCCN(C(=O)CCC2CCNCC2)C1)C(=O)O` [Ex. 8], the half-maximal inhibitory concentration (IC50) at active GPIIb/IIIa (ADP final concentration 2.5 μM) came to 49 nM; at resting GPIIb/IIIa, 1520 nM.
For the compound `CN(CC(=O)c1ccc(OCC(=O)O)c(OCCF)c1)C(=O)/C=C/C1CCNCC1` [Ex. 15], at active GPIIb/IIIa, the R/A ratio is given as 19. Besides, the IC50 was determined as 320 nM at active GPIIb/IIIa (ADP final concentration 2.5 μM) and 6210 nM at resting GPIIb/IIIa.
Regarding `N=C(N)c1ccc(C(=O)N[C@@H](Cc2ccc(O)cc2)C(=O)N2CCC(OCC(=O)O)CC2)cc1` [Reference Ex. 3, Lamifiban, reference compound], the R/A ratio on active GPIIb/IIIa is recorded as 1.8. Besides, the figures for the half-inhibitory concentration (IC50) on active GPIIb/IIIa (ADP final concentration 2.5 μM) and at resting GPIIb/IIIa were 45 nM and 80 nM, respectively.
As to “Echistatin [compound 1, reference compound]”, the R/A ratio on active GPIIb/IIIa was found to be 0.38. Also, the “A Inhibition of platelet aggregation IC50” value on active GPIIb/IIIa (human PRP, ADP final concentration 2.5 μM, value printed in μg/ml) was 0.36 µg/mL. Further, the “R Suppression of fibrinogen adhesion IC50” value on resting GPIIb/IIIa (PGE1-treated platelets, human fibrinogen coated plates, value printed in μg/ml) was 0.14 µg/mL.
On to `N=C(N)c1ccc(OCC(=O)Nc2ccc(OCC(=O)O)c(C(=O)O)c2)cc1` [Ex. 4], for which the R/A ratio at active GPIIb/IIIa is reported as 6.3. The results for the IC50 at active GPIIb/IIIa (ADP final concentration 2.5 μM) and at resting GPIIb/IIIa were 260 nM and 1630 nM, respectively.
In the case of `N[C@@H](CNC(=O)[C@@H]1CCCN(C(=O)CCC2CCNCC2)C1)C(=O)O` [Ex. 10], on active GPIIb/IIIa, the R/A ratio came to 9.2. The IC50 on active GPIIb/IIIa (ADP final concentration 2.5 μM) turned out to be 272 nM; at resting GPIIb/IIIa, 2510 nM.
As to `COc1ccc(CCC(=O)N[C@@H](CNC(=O)[C@@H]2CCCN(C(=O)CCC3CCNCC3)C2)C(=O)O)cc1` [Ex. 11], the R/A ratio at active GPIIb/IIIa was 6.5. For the same compound, the IC50 at active GPIIb/IIIa (ADP final concentration 2.5 μM) is 88 nM; at resting GPIIb/IIIa, 479 nM.
For `CC(C)[C@H](NC(=O)[C@H](CC(=O)O)NC(=O)CCCOc1ccc(C(=N)N)cc1)C(=O)O` [Reference Ex. 4, FK633, reference compound] the same measures were 13, 103 nM and 1320 nM.

The values are drawn from patent US20070189970A1, “Contrast medium for thrombus formation” (Astellas Pharma Inc., priority 2004, published 2007).
